In ChEMBL document CHEMBL1221241, “Discovery of tetrahydroisoquinoline (THIQ) derivatives as potent and orally bioavailable LFA-1/ICAM-1 antagonists” (Bioorg Med Chem Lett, 2010):

Tests used:
[1] = target: Intercellular adhesion molecule (ICAM-1), Integrin alpha-L/beta-2 (Homo sapiens, UniProt P05107+P05362+P20701); assay: Inhibition of LFA1/ICAM1 interaction in human Hut-78 cells by cell migration assay; assay type: cell-based
[2] = Half life in Sprague-Dawley rat at 5 mg/kg, iv; assay type: ADME, organism-based; set-up: dose 5 mg/kg, route intravenous; details: in vivo
[3] = AUC in Sprague-Dawley rat at 5 mg/kg, iv; assay type: ADME, organism-based; set-up: dose 5 mg/kg, route intravenous; details: plasma
[4] = Clearance in Sprague-Dawley rat at 5 mg/kg, iv; assay type: ADME, organism-based; set-up: dose 5 mg/kg, route intravenous; details: in vivo
[5] = Oral bioavailability in Sprague-Dawley rat at 100 mg/kg; assay type: ADME, organism-based; details: in vivo
[6] = Cmax in C57BL/6 mouse at 100 mg/kg, po; assay type: ADME, organism-based; set-up: dose 100 mg/kg, route oral; details: in vivo
[7] = AUClast in C57BL/6 mouse at 100 mg/kg, po; assay type: ADME, organism-based; set-up: time 0 - last, dose 100 mg/kg, route oral; details: plasma
[8] = Tmax in C57BL/6 mouse at 100 mg/kg, po; assay type: ADME, organism-based; set-up: dose 100 mg/kg, route oral; details: in vivo
[9] = AUClast in C57BL/6 mouse at 20 mg/kg, po; assay type: ADME, organism-based; set-up: time 0 - last, dose 20 mg/kg, route oral; details: plasma
[10] = Oral bioavailability in C57BL/6 mouse at 20 mg/kg; assay type: ADME, organism-based; details: in vivo
[11] = Cmax in C57BL/6 mouse at 20 mg/kg, po; assay type: ADME, organism-based; set-up: dose 20 mg/kg, route oral; details: in vivo
[12] = Tmax in C57BL/6 mouse at 20 mg/kg, po; assay type: ADME, organism-based; set-up: dose 20 mg/kg, route oral; details: in vivo
[13] = Oral bioavailability in Sprague-Dawley rat at 20 mg/kg; assay type: ADME, organism-based; details: in vivo
[14] = AUClast in Sprague-Dawley rat at 20 mg/kg, po; assay type: ADME, organism-based; set-up: time 0 - last, dose 20 mg/kg, route oral; details: plasma
[15] = Tmax in Sprague-Dawley rat at 20 mg/kg, po; assay type: ADME, organism-based; set-up: dose 20 mg/kg, route oral; details: in vivo
[16] = Cmax in Sprague-Dawley rat at 20 mg/kg, po; assay type: ADME, organism-based; set-up: dose 20 mg/kg, route oral; details: in vivo
[17] = Apparent permeability of the compound from apical to basolateral side in MDCK cells; assay type: ADME, cell-based, Canis lupus familiaris; details: dog
[18] = Apparent permeability of the compound from basolateral to apical side in MDCK cells; assay type: ADME, cell-based, Canis lupus familiaris; details: dog
Mus musculus [19] = assay: Reduction of neutrophil migration in po dosed thioglycollate-induced C57BL/6 mouse peritonitis model administered 15 mins before thioglycollate challenge measured after 4 hrs; assay type: functional
Mus musculus [20] = assay: Reduction of neutrophil migration in iv dosed thioglycollate-induced C57BL/6 mouse peritonitis model administered 15 mins before thioglycollate challenge measured after 4 hrs; assay type: functional

Chain of Intercellular adhesion molecule (ICAM-1), Integrin alpha-L/beta-2 (P20701 whole entry): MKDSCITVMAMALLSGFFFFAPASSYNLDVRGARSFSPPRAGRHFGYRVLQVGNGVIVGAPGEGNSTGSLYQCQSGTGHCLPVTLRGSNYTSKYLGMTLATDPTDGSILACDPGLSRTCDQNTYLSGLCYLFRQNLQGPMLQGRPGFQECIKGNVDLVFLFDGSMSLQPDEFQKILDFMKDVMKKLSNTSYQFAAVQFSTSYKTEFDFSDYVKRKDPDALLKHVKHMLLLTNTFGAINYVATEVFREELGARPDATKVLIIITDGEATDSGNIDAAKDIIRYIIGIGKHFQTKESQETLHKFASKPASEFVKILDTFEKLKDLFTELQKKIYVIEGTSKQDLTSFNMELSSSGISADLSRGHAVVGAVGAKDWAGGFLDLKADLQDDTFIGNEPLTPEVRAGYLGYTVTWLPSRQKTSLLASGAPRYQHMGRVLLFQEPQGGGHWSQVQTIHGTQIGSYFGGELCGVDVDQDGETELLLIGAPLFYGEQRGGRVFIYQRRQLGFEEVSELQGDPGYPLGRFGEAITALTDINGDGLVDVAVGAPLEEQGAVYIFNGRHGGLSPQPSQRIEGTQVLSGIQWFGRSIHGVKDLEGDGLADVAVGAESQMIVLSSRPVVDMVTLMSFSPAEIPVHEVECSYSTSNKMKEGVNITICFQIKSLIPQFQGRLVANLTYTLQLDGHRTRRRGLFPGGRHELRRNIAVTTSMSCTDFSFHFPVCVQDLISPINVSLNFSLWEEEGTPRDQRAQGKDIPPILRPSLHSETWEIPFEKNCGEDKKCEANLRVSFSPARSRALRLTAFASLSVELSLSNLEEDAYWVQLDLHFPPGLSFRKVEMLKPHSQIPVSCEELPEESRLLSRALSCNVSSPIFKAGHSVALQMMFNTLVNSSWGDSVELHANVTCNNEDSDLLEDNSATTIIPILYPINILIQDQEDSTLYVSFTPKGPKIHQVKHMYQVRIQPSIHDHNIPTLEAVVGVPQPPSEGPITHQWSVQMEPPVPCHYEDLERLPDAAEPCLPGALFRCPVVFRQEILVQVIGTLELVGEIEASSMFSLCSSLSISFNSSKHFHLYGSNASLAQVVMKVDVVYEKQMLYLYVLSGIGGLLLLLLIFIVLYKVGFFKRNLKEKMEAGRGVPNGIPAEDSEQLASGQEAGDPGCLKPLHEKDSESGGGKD
Chain of Intercellular adhesion molecule (ICAM-1), Integrin alpha-L/beta-2 (P05362 whole entry): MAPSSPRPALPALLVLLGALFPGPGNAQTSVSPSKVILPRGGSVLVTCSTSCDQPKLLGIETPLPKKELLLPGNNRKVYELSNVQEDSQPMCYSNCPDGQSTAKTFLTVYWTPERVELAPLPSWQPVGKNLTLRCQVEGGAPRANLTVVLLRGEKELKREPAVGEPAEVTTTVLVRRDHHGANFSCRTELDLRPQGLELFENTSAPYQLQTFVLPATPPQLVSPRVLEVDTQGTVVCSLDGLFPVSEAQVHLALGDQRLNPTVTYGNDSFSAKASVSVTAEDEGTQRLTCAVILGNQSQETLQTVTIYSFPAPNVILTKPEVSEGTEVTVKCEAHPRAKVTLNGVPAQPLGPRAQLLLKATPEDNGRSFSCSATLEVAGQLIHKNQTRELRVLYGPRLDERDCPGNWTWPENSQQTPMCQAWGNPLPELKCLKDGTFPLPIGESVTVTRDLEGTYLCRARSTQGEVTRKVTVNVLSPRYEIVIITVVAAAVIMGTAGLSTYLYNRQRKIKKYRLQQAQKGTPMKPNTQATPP
Chain of Intercellular adhesion molecule (ICAM-1), Integrin alpha-L/beta-2 (P05107 whole entry): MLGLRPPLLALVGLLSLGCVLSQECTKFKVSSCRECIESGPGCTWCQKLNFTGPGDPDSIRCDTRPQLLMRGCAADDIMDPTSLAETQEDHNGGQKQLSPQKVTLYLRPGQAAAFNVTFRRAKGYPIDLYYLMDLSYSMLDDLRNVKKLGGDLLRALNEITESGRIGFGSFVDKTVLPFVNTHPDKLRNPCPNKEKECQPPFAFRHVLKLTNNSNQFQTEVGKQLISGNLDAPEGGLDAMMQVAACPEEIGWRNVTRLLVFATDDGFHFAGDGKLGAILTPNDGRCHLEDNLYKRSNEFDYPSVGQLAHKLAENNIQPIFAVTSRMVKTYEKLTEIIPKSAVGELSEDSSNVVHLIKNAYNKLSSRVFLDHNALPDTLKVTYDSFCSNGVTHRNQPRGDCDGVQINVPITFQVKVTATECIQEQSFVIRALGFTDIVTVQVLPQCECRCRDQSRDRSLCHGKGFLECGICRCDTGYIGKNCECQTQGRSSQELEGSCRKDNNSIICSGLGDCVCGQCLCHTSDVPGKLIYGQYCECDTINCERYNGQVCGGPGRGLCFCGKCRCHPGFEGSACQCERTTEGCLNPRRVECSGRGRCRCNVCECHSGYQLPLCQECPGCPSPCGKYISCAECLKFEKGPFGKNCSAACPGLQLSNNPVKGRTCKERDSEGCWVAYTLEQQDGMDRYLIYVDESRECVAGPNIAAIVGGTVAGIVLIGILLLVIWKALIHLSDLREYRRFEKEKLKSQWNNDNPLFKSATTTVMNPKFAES

## O=C(N[C@@H](Cc1c[nH]c2ccccc12)C(=O)O)c1c(Cl)cc2c(c1Cl)CCN(C(=O)c1ccc(Cl)cc1)C2
[1]
  IC50: 810 nM

## O=C(NC[C@H](NC(=O)c1c(Cl)cc2c(c1Cl)CCN(C(=O)c1cccc(Cl)c1)C2)C(=O)O)c1cccs1
[2]
  half-life: 1.1 h
[1]
  IC50: 66 nM
[3]
  AUC: 120 ng·h/mL
[4]
  clearance: > 60 mL/min/kg

## O=C(NC[C@H](NC(=O)c1c(Cl)cc2c(c1Cl)CCN(C(=O)c1ccccc1)C2)C(=O)O)c1cccs1
[1]
  IC50: 79 nM

## NC[C@H](NC(=O)c1c(Cl)cc2c(c1Cl)CCN(C(=O)c1ccc(Cl)cc1)C2)C(=O)O
[1]
  IC50: > 1000 nM

## Cc1cccc(C(=O)N2CCc3c(cc(Cl)c(C(=O)N[C@@H](CNC(=O)c4cccs4)C(=O)O)c3Cl)C2)c1
[1]
  IC50: 90 nM

## O=C(N[C@@H](CNC(=O)C1CCCCC1)C(=O)O)c1c(Cl)cc2c(c1Cl)CCN(C(=O)c1ccc(Cl)cc1)C2
[1]
  IC50: 540 nM

## Cc1ccccc1C(=O)N1CCc2c(cc(Cl)c(C(=O)N[C@@H](CNC(=O)c3cccs3)C(=O)O)c2Cl)C1
[1]
  IC50: 460 nM

## O=C(NC[C@H](NC(=O)c1c(Cl)cc2c(c1Cl)CCN(C(=O)c1ccc3c(c1)OCC3)C2)C(=O)O)c1cccs1
[2]
  half-life: 1.1 h
[1]
  IC50: 13 nM
[3]
  AUC: 4870 ng·h/mL
[4]
  clearance: 19 mL/min/kg

## O=C(NC[C@H](NC(=O)c1c(Cl)cc2c(c1Cl)CCN(C(=O)c1ccc(Cl)cc1)C2)C(=O)O)c1ccccc1
[2]
  half-life: 0.7 h
[1]
  IC50: 29 nM
[3]
  AUC: 487 ng·h/mL
[4]
  clearance: > 60 mL/min/kg

## CC(=O)N1CCc2c(cc(Cl)c(C(=O)N[C@@H](CNC(=O)c3cccs3)C(=O)O)c2Cl)C1
[1]
  IC50: > 1000 nM

## O=C(NC[C@H](NC(=O)c1c(Cl)cc2c(c1Cl)CCN(C(=O)/C=C/c1ccco1)C2)C(=O)O)c1cccs1
[1]
  IC50: 25 nM

## CCOC(=O)[C@H](CNC(=O)c1cccs1)NC(=O)c1c(Cl)cc2c(c1Cl)CCN(C(=O)c1ccc3ccoc3c1)C2
[2]
  half-life: 2.8 h
[5]
  bioavailability: 31%
[6]
  Cmax: 8460 ng/mL
[7]
  AUC(0-t): 31900 ng·h/mL
[8]
  Tmax: 1 h
[9]
  AUC(0-t): 5540 ng·h/mL
[10]
  bioavailability: 27%
[11]
  Cmax: 2120 ng/mL
[12]
  Tmax: 0.8 h
[13]
  bioavailability: 18%
[14]
  AUC(0-t): 13900 ng·h/mL
[15]
  Tmax: 0.8 h
[16]
  Cmax: 3400 ng/mL
[3]
  AUC: 16800 ng·h/mL
[4]
  clearance: 5 mL/min/kg
[17]
  Papp A→B: 8.5 ×10⁻⁶ cm/s
[18]
  Papp B→A: 10 ×10⁻⁶ cm/s
Mus musculus [19]
  Activity: Dose-dependent effect
Mus musculus [19]; C57BL/6, po
  ED50: 6.4 mg/kg

## O=C(NC[C@H](NC(=O)c1c(Cl)cc2c(c1Cl)CCN(C(=O)c1ccc3ccoc3c1)C2)C(=O)O)c1cccs1
[2]
  half-life: 3 h
[1]
  IC50: 9 nM
[3]
  AUC: 5500 ng·h/mL
[4]
  clearance: 3.2 mL/min/kg
[17]
  Papp A→B: 0.34 ×10⁻⁶ cm/s
[18]
  Papp B→A: 0.3 ×10⁻⁶ cm/s
Mus musculus [20]
  Activity: Dose-dependent effect
Mus musculus [20]; C57BL/6, iv
  ED50: 0.038 mg/kg

## O=C(NC[C@H](NC(=O)c1c(Cl)cc2c(c1Cl)CCN(C(=O)c1cc3ccccc3o1)C2)C(=O)O)c1cccs1
[2]
  half-life: 1.5 h
[1]
  IC50: 5 nM
[3]
  AUC: 1260 ng·h/mL
[4]
  clearance: > 60 mL/min/kg

## CC(=O)NC[C@H](NC(=O)c1c(Cl)cc2c(c1Cl)CCN(C(=O)c1ccc(Cl)cc1)C2)C(=O)O
[1]
  IC50: 620 nM

## O=C(NC[C@H](NC(=O)c1c(Cl)cc2c(c1Cl)CCN(C(=O)c1ccc(Cl)cc1)C2)C(=O)O)c1ccco1
[1]
  IC50: 51 nM

## O=C(N[C@@H](Cc1cccc(O)c1)C(=O)O)c1c(Cl)cc2c(c1Cl)CCN(C(=O)c1ccc(Cl)cc1)C2
[1]
  IC50: > 1000 nM

## Cc1ccc(C(=O)N2CCc3c(cc(Cl)c(C(=O)N[C@@H](CNC(=O)c4cccs4)C(=O)O)c3Cl)C2)cc1
[1]
  IC50: 10 nM

## O=C(NC[C@H](NC(=O)c1c(Cl)cc2c(c1Cl)CCN(C(=O)c1ccc(Cl)cc1)C2)C(=O)O)c1cccs1
[2]
  half-life: 1.4 h
[1]
  IC50: 22 nM
[3]
  AUC: 580 ng·h/mL
[4]
  clearance: 31 mL/min/kg

## O=C(NC[C@H](NC(=O)c1c(Cl)cc2c(c1Cl)CCN(C(=O)C1CCCCC1)C2)C(=O)O)c1cccs1
[1]
  IC50: > 1000 nM
